Consider 16 molecules from US6355633B1, “Aryl sulfonic acids and derivatives as FSH antagonists” (American Home Products Corporation, priority 1999, dated 2002).

The target in this experiment is T1, FSH receptor (Homo sapiens, UniProt P23945).
T1 sequence (P23945 18-695): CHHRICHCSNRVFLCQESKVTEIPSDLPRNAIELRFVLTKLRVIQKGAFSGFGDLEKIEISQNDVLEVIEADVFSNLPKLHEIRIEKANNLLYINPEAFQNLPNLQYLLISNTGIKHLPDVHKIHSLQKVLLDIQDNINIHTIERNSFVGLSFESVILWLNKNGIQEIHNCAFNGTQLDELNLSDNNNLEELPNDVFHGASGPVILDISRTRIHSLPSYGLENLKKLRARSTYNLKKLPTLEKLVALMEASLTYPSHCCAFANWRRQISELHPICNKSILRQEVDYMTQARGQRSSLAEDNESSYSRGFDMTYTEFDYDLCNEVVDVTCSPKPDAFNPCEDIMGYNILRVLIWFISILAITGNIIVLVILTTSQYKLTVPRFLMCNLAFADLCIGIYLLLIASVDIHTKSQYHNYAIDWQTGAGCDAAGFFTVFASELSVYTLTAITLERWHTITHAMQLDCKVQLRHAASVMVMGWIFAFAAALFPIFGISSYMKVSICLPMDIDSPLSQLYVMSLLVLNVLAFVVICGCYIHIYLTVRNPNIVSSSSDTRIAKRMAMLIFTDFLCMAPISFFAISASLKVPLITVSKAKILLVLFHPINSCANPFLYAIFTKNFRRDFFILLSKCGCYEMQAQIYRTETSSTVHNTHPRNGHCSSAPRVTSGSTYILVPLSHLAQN
Briefly: FSH Receptor Radioligand Membrane Binding Standard Pharmacological Test Procedure. Details: expressed in transfected cells. To be noted: [125I]FSH binding to membranes of CHO cells stably transfected with the human FSH receptor. How it is done: FSH Receptor Radioligand Membrane Binding Standard Pharmacological Test Procedure
Membrane Source: Chinese hamster ovarian cells stably transfected with the human FSH receptor were cultured (Ultra CHO medium containing 1% fetal bovine serum and 200 μg/mL G418) in and harvested. Cells were collected by centrifugation and resulting cell pellets were frozen and stored at −70° C.
Membrane Receptor Preparation: Frozen cell pellets were weighed and resuspended in binding buffer to a final concentration of 30 mg wet weight/mL. Cell suspension for each pellet was homogenized using a Tempest homogenizer (setting=1; 5 strokes; VirTis, Gardiner, N.Y.). Cell homogenates were pooled and 35 mL aliquots were transferred to 50-mL polypropylene copolymer centrifuge tubes (Nalgene cat. #3110-0500). Tubes were spun at 12,000 rpm (SS34 rotor) for 12 min at 4° C. Resulting supernatant fractions were discarded and pellets were stored at −70° C. until use. On the day of the procedure, 35 mL binding buffer was added to each tube (35 mL membrane suspension was sufficient for three 96-well plates). The membrane pellet was dispersed by trituration using a pipet. The resulting suspension wass homogenized using a Tempest homogenizer (3 strokes at setting=1).
Receptor Binding Test procedure: Membrane homogenate (100 μl) was added to each well of a 96-well microtiter plate (Falcon # 3077). All reactions were tested in triplicate. Test compound solutions (50 μl) were added to the designated wells. Total bound counts were determined by adding 50 μl binding buffer containing 4% DMSO to the designated wells. […] Plates were pre-incubated for 15 min at room temperature on shaking platform (setting=3). After preincubation [^125I]FSH (50 μl) was added to each well and plates were incubated for 2 h at room temperature on shaking platform (setting=3). The reaction was terminated by transfer of the membrane preparation to glass fiber filters (Blue Mat #11740; 102×256 mm; Skatron Instruments, Sterling, Va.) that had been pretreated with 1% BSA in wash buffer for at least 30 min, but not longer than 1 h using a 96-well microtiter vacuum harvester (Skatron Instruments). The membrane preparation was washed with 5 cycles of ice-cold wash buffer (200 μl/well/cycle) followed by a pulse wash of 3 cycles (100 μl/well/cycle). The total wash volume per well was 1.3 mL. The filters were dried by a 10 sec aspiration. Disks corresponding to each well of the microtiter plate were punched out of the filter mat into 12×75 mm polypropylene tubes. The radioactivity present on each of the disks was measured using a gamma counter.
An FSH dose response curve (0.001, 0.01, 0.1, 1, 10, and 100 nM) was generated for each binding procedure to monitor procedure to procedrue variability.
FSH Receptor Radioligand Membrane Binding Procedure Buffers and Reagents
Binding buffer is prepared in 11 volumes containing Trizma-HCl, MgCl2, CaCl2 and sodium azide, the pH was adjusted to 7.2 with NaOH, and stored at 4° C. until use. BSA was weighed out on the day of the procedure and added to the amount of buffer required for the procedure (usually 150 mL). The protease inhibitors were prepared as 1 mg/mL stocks (aprotinin, leupeptin, and phosphoramidon were prepared in binding buffer without BSA and protease inhibitors; pepstatin and PMSF were prepared in methanol), stored in 1 mL aliquots at −70° C., and added to the binding buffer on the day of the procedure.
Wash buffer was prepared containing Trizma-HCl, MgCl2 and EDTA, the pH was adjusted to 7.2 with NaOH, and stored at 4° C.
Filter Soak Buffer (pH 7.2)
BSA was weighed out on the day of the procedure and added to 300 mL of wash buffer. The filter soak buffer was used for two procedures before being discarded.
A portion of the stock solution was diluted in binding buffer to a concentration of 200 pM.
FSH Solution for Determining Non-specific Binding: Purified human FSH was prepared as a 100 μM solution in binding buffer without protease inhibitors. […]

`COCCNc1ccc(C(=O)Nc2ccc(/C=C/c3ccc(NC(=O)c4ccc(NCCOC)c(S(=O)(=O)N5CCOCC5)c4)cc3S(=O)(=O)O)c(S(=O)(=O)O)c2)cc1S(=O)(=O)N1CCOCC1` [Example 30l, 2,2′-[(E)-1,2-Ethenediyl]bis[5-[[4-[(2-methoxyethyl)amino]-3-(4-morpholinylsulfonyl)benzoyl]amino]benzenesulfonic Acid]]: the IC50 was 3.9 µM.
`O=C(Nc1ccc(/C=C/c2ccc(NC(=O)c3ccc(OCc4ccco4)c(S(=O)(=O)N4CCOCC4)c3)cc2S(=O)(=O)O)c(S(=O)(=O)O)c1)c1ccc(OCc2ccco2)c(S(=O)(=O)N2CCOCC2)c1` [Example 30u, 2,2′-[(E)-1,2-Ethenediyl]bis[5-[[4-(2-furanylmethoxy)-3-(4-morpholinylsulfony)benzoyl]amino]benzenesulfonic Acid]]: the IC50 was 10 µM.
The same measure for `COC(=O)CS(=O)(=O)c1ccc(C(=O)Nc2ccc(C=Cc3ccc(NC(=O)c4ccc(S(=O)(=O)CC(=O)OC)cc4)cc3S(=O)(=O)O)c(S(=O)(=O)O)c2)cc1` [Example 32c, [4-(4-{2-[4-(4-Methoxycarbonylmethanesulfonyl-benzoylamino)-2-sulfo-phenyl]-vinyl}-3-sulfo-phenylcarbomoyl)-benzenesulfonyl]-acetic Acid, Methyl Ester]: 6.9 µM.
For `COC(=O)CS(=O)(=O)c1cccc(C(=O)Nc2ccc(C=Cc3ccc(NC(=O)c4cccc(S(=O)(=O)CC(=O)OC)c4)cc3S(=O)(=O)O)c(S(=O)(=O)O)c2)c1` [Example 32d, [3-(4-{2-[4-(3-Methoxycarbonylmethanesulfonyl-benzoylamino)-2-sulfo-phenyl]-vinyl}-3-sulfo-phenylcarbomoyl)-benzenesulfonyl]-acetic Acid, Methyl Ester], the IC50 was 12.5 µM.
The same measure for `CS(=O)(=O)Cc1ccc(C(=O)Nc2ccc(/C=C/c3ccc(NC(=O)c4ccc(CS(C)(=O)=O)cc4)cc3S(=O)(=O)O)c(S(=O)(=O)O)c2)cc1` [Example 32g, 2,2′-[(E)-1,2-Ethenediyl]bis[5-[[4-[(methylsulfonyl)methyl]benzoyl]amino]benzenesulfonic Acid]]: 5.3 µM.
In turn, `O=C(Nc1ccc(/C=C/c2ccc(NC(=O)c3ccc(N4CCOCC4)c(S(=O)(=O)N4CCOCC4)c3)cc2S(=O)(=O)O)c(S(=O)(=O)O)c1)c1ccc(N2CCOCC2)c(S(=O)(=O)N2CCOCC2)c1` [Example 32k, 2,2′-[(E)-1,2-Ethenediyl]bis[5-[[4-(4-morpholinyl)-3-(4-morholinylsulfonyl)benzoyl]amino]benzenesulfonic Acid]] returned an IC50 of 7 µM.
Molecule `COCCSc1ccc(C(=O)Nc2ccc(/C=C/c3ccc(NC(=O)c4ccc(SCCOC)c(S(=O)(=O)N5CCOCC5)c4)cc3S(=O)(=O)O)c(S(=O)(=O)O)c2)cc1S(=O)(=O)N1CCOCC1` [Example 32l] returned an IC50 of 4.1 µM.
The same measure for `COCCN(CCOC)c1ccc(C(=O)Nc2ccc(/C=C/c3ccc(NC(=O)c4ccc(N(CCOC)CCOC)c(S(=O)(=O)N5CCOCC5)c4)cc3S(=O)(=O)O)c(S(=O)(=O)O)c2)cc1S(=O)(=O)N1CCOCC1` [Example 32m, 2,2′-[(E)-1,2-Ethenediyl]bis[5-[[4-[bis(2-methoxyethyl)amino]-3-(4-morpholinylsulfonyl)benzoyl]amino]benzenesulfonic Acid]]: 4.9 µM; for `CN(C)c1ccc(C(=O)Nc2ccc(/C=C/c3ccc(NC(=O)c4ccc(N(C)C)c(S(=O)(=O)N5CCOCC5)c4)cc3S(=O)(=O)O)c(S(=O)(=O)O)c2)cc1S(=O)(=O)N1CCOCC1` [Example 32n, 2,2′-[(E)-1,2-Ethenediyl]bis[5-[[4-(dimethylamino)-3-(4-morpholinylsulfonyl)benzoyl]amino]benzenesulfonic Acid]]: 4.8 µM.
Next, `COC(=O)CSc1ccc(C(=O)Nc2ccc(/C=C/c3ccc(NC(=O)c4ccc(SCC(=O)OC)c(S(=O)(=O)N5CCOCC5)c4)cc3S(=O)(=O)O)c(S(=O)(=O)O)c2)cc1S(=O)(=O)N1CCOCC1` [Example 32p, [4-[4-(2-{4-[4-Methoxycarbonylmethanesulfanyl-3-(morpholine-4-sulfonyl)-benzoylamino]-2-sulfo-phenyl}-(E)-vinyl)-3-sulfo-phenylcarbamoyl]-2-(morpholine-4-sulfonyl)-phenylsulfanyl]-acetic Acid, Methyl Ester]: 15 µM; `O=C(Nc1ccc(CCc2ccc(NC(=O)c3ccc(CC4CCCO4)c(S(=O)(=O)N4CCOCC4)c3)cc2S(=O)(=O)O)c(S(=O)(=O)O)c1)c1ccc(CC2CCCO2)c(S(=O)(=O)N2CCOCC2)c1` (stereo not shown) [Example 32q, 2,2′-(1,2-Ethanediyl)bis[5-[[4-(tetrahydro-2-furanmethyl)-3-(4-morpholinylsulfonyl)benzoyl]amino]benzenesulfonic Acid]]: 2.4 µM; `O=C(Nc1ccc(/C=C/c2ccc(NC(=O)c3cccc(S(=O)(=O)N4CCOCC4)c3)cc2S(=O)(=O)O)c(S(=O)(=O)O)c1)c1cccc(S(=O)(=O)N2CCOCC2)c1` [Example 33a, 2,2′-[(E)-1,2-Ethenediyl]bis[5-[[3-(4-morpholinylsulfonyl)benzoyl]amino]benzenesulfonic Acid]]: 6.9 µM.
For the molecule `O=C(Nc1ccc(/C=C/c2ccc(NC(=O)c3cccc(CN4CCOCC4)c3)cc2S(=O)(=O)O)c(S(=O)(=O)O)c1)c1cccc(CN2CCOCC2)c1` [Example 33b, 2,2′-[(E)-1,2-Ethenediyl]bis[5-[[3-(4-morpholinylmethyl)benzoyl]amino]benzenesulfonic Acid]], the IC50 came out at 4.5 µM.
The same measure for `COc1ccc(C(=O)Nc2ccc(-c3ccc(NC(=O)c4ccc(OC)c(S(=O)(=O)N5CCOCC5)c4)cc3S(=O)(=O)O)c(S(=O)(=O)O)c2)cc1S(=O)(=O)N1CCOCC1` [Example 33g, 4,4′-Bis[4-methoxy-3-(morpholine-4-sulfonyl)benzoylamino]biphenyl-2,2′-(bis)sulfonic Acid]: 20 µM.
Next, `CS(=O)(=O)c1ccc(C(=O)Nc2ccc(/C=C/c3ccc(NC(=O)c4ccc(S(C)(=O)=O)c(N)c4)cc3S(=O)(=O)O)c(S(=O)(=O)O)c2)cc1N` [Example 35, 2,2′-[(E)-1,2-Ethenediyl]bis[5-[[3-amino-4-(methylsulfonyl)benzoyl]amino]benzenesulfonic Acid]]: 4.1 µM; `O=C(O)CS(=O)(=O)c1ccc(C(=O)Nc2ccc(C=Cc3ccc(NC(=O)c4ccc(S(=O)(=O)CC(=O)O)cc4)cc3S(=O)(=O)O)c(S(=O)(=O)O)c2)cc1` [Example 36a, [4-(4-{2-[4-(4-Carboxymethanesulfonyl-benzoylamino)-2-sulfo-phenyl]-vinyl}-3-sulfo-phenylcarbamoyl)-benzenesulfonyl]-acetic Acid]: 16 µM.

In general, IC50 refers to the point on the concentration scale where inhibition reaches its midpoint.
